Source: patent US9040568B2, “Pharmaceutical compositions for the treatment of pain” (AbbVie Inc., priority 2009, dated 2015)
Structures can show the parent of a compound that is named as a salt. Blank lines part the entries; values can stand above or below the molecule they belong to.

Columns and labels:
[1] = biological target: T1, human α4β2 nicotinic acetylcholine receptor subtype expressed in HEK-293 cells (Homo sapiens, UniProt P17787+P43681); assay: Calcium flux assay (FLIPR) in HEK-293 cells expressing human α4β2; format: cell-based
T1 construct: expressed in transfected cells
T1 sequence (P43681 29-627 limits assumed): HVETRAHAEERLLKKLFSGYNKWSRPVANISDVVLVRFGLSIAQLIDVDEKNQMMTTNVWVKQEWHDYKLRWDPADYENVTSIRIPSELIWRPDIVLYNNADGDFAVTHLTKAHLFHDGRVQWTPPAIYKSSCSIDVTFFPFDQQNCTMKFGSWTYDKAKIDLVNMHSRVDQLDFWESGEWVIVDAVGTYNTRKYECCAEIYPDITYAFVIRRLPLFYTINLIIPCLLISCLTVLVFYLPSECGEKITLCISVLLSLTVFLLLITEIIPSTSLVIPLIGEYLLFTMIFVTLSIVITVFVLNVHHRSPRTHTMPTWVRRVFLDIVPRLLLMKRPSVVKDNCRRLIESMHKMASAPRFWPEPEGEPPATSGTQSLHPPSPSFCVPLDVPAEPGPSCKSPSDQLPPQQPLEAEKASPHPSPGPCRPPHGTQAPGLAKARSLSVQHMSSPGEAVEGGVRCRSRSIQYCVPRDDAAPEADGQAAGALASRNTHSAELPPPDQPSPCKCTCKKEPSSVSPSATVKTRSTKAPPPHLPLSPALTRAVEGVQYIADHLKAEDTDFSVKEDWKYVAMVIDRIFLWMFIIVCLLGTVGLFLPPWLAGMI
T1 sequence (P17787 26-502): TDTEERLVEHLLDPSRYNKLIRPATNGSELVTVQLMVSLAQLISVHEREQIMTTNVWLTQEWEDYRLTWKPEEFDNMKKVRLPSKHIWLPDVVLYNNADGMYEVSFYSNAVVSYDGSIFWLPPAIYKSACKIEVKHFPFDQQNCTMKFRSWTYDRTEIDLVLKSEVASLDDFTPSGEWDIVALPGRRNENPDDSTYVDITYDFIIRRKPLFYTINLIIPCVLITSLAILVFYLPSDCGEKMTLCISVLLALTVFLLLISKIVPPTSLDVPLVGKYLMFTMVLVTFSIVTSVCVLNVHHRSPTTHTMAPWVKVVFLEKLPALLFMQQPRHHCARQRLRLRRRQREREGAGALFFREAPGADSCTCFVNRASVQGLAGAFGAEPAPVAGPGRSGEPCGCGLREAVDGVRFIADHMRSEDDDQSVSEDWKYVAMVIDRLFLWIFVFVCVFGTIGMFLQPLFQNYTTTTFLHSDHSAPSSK
Description: Calcium Flux Assays Using Cells Expressing nAChR Subtypes
Human embryonic kidney (HEK) 293 cells stably expressing human α4β2 or α3β4 combinations are grown to confluency in 162 cm^2 tissue culture flasks in DMEM media supplemented with 10% FBS and 25 μg/ml zeocin and 200 μg/ml hygromycin B. IMR-32 neuroblastoma cells (ATCC) are grown to confluency in 162 cm^2 tissue culture flasks in minimum essential media supplemented with 10% FBS and 1 mM sodium pyruvate, 1% non-essential amino acids and 1% antibiotic-antimycotic. The cells are then dissociated using cell dissociation buffer and 100-150 μl per well of 3.5×10^5 cells/ml cell suspension (˜50,000-100,000 cells/well) was plated into 96-well black plates (poly-D-lysine precoated) with clear bottom and maintained for 24-48 hours in a tissue culture incubator at 37° C. under an atmosphere of 5% CO2: 95% air. Other clonal cell lines or primary cell cultures that express endogenous α4* nicotinic receptors may also be used in this assay. Calcium flux was measured using calcium-3 assay kit (Molecular Devices, Sunnyvale, Calif.) or fluo-4 (Invitrogen). A stock solution of the dye was prepared by dissolving each vial supplied by the vendor in Hank's balanced salt solution buffer (HBSS) or 150 mM NMDG, 20 mM CaCl2 containing 10 mM HEPES, The stock solution was diluted 1:20 using the same buffer before use. The growth media was removed from the cells. The cells were loaded with 100 μl of the dye per well and incubated at room temperature for up to one hour for HEK 293 clonal stable cell lines or 30 minutes-45 minutes at 37° C. for IMR-32 cells Fluorescence measurements were read simultaneously from all the wells by a Fluorometic Imaging Plate Reader (FLIPR) at an excitation wavelength of 480 nm and an emission wavelength of 520 nm. Baseline fluorescence was measured for the first 6 seconds at which 3× concentrations of modulator/test compounds were added to the cell plate at 50 μl and incubated for five minutes. The fluorescence intensity was captured every second for the first 1 minute followed by every 5 seconds for an additional 4 minutes. This procedure was followed by 50 μl of 4× concentration of agonist and readings were taken for a period of 3-5 minutes as described above. Data was normalized to maximal responses and plotted as a function of concentration. The concentration dependence of changes fluorescence responses was fitted by nonlinear regression analysis (GraphPad Prism, San Diego, Calif.) to obtain EC50 values.
The positive allosteric modulator effects on α4β2nAChRs exemplified by 3-(3-pyridin-3-yl-1,2,4-oxadiazol-5-yl)benzonitrile (Compound 1) and 3,5-di(pyridin-3-yl)-1,2,4-oxadiazole (Compound 2) can be identified by measuring their potentiating effect to fluorescence changes in intracellular calcium using a fluorimetric plate reader. The potentiating effect of an α4β2 modulator on α4β2 receptor can also be illustrated by concentration responses to α4β2 agonists, for example 5-[(2R)-azetidin-2-ylmethoxy]-2-chloropyridine (Compound A) and (3R)-1-pyridin-3-ylpyrrolidin-3-amine (Compound B), in presence of a fixed concentration of PAM. […] In addition to compound A and B, other known nicotinic agonists can be left-shifted in presence of α4β2 PAM such as 3-(3-(pyridin-3-yl)-1,2,4-oxadiazol-5-yl)benzonitrile (Compound 1, FIG. 2C). […]

α4β2 nAChR = α4β2 nAChR (UniProt P09483+P12390); assay: [^3H]-cytisine binding assay
Excerpt: One manner for characterizing α4β2 receptor ligands is by a binding assay. […] The [^3H]-cytisine binding assays have been well reported; however, further details for carrying out the assays can be obtained in International Publication No. WO 99/32480; U.S. Pat. Nos. 5,948,793 and 5,914,328; WO 2004/018607; U.S. Pat. No. 6,809,105; WO 00/71534; and U.S. Pat. No. 6,833,370.

[2] = system: nerve injury induced mechanical allodynia; assay: Chung model of neuropathic pain (L5-L6 spinal nerve ligation, tactile allodynia, von Frey); format: in vivo, rat
Description: To assess whether α4β2 PAM can increase antinociceptive responses of agonists in vivo, the following study was conducted. The materials and methods used to accomplish the study follow.
Male Sprague-Dawley rats (Charles River, Wilmington, Mass.) weighing 120-150 grams at time of surgery were utilized. These animals were group housed in AAALAC approved facilities at Abbott Laboratories in a temperature-regulated environment with lights on between 0700 and 2000 hours. Food and water was available ad libitum except during testing. All animal handling and experimental protocols were approved by an institutional animal care and use committee (IACUC). All experiments were performed during the light cycle.
5[(2R)-Azetidin-2-ylmethoxy]-2-chloropyridine (Compound A, 1-100 nmol/kg) and 3-(3-pyridin-3-yl)-1,2,4-oxadiazol-5-yl)benzonitrile (α4β2 PAM Compound 1, 1-35 μmol/kg, i.p.) was used. Compound A and D was prepared in saline and injected in solution in a volume of 2 ml/kg body weight 30 minutes before behavioral evaluation. Compound 1,3-(3-(pyridin-3-yl)-1,2,4-oxadiazol-5-yl)benzonitrile, was prepared in 30% hydroxybetacyclodextrin and injected in solution in a volume of 4 ml/kg body weight immediately before Compound A. For studies with Compound D, the doses tested ranged from 0.3-30 μmol/kg i.p.
To produce neuropathic pain, tight ligation of the L5-L6 spinal nerves was performed. As previously described in detail by Kim and Chung (Kim S H and Chung J M (1992), Pain 50: 355), following sterilization procedures, a 1.5 cm incision was made dorsal to the lumbosacral plexus. The paraspinal muscles (left side) were separated from the spinous processes, the L5 and L6 spinal nerves isolated, and tightly ligated with 3-0 silk thread. Following hemostasis, the wound was sutured and coated with antibiotic ointment. The rats were allowed to recover and then placed in a cage with soft bedding for 7-14 days before behavioral testing for mechanical allodynia.
Tactile allodynia was measured using calibrated (force; g) von Frey filaments (Stoelting, Wood Dale, Ill.). Briefly, rats were placed into individual plexiglass containers and allowed to acclimate for 15-20 minutes before testing. Withdrawal threshold was determined by increasing and decreasing stimulus intensity and estimated using a Dixon non-parametric test (Chaplan et al., 1994; Chaplan S R, Bach F W, Pogrel J W, Chung J M and Yaksh T L (1994) J Neurosci Methods 53:55-63). Only rats with threshold scores<4.5 g were considered allodynic and utilized in further testing. A percent of maximal possible effect (% M.P.E.) of the tested compounds was calculated according to the formula: ([post-drug threshold]-[baseline threshold])/([maximum threshold]-[baseline threshold])×100%, where maximum threshold was equal to 15 g.
Analysis of the in vivo data was carried out using analysis of variance. Where appropriate, Bonferroni's Multiple Comparison Test was used for post-hoc analysis. The level of significance was set at p less than 0.05. Data are presented as mean±S.E.M.

α4β2nAChR modulator site = biological target: T2, α4β2nAChR modulator site (Homo sapiens, UniProt P17787+P43681); assay: [^3H]-POB binding, membrane enriched fractions from human cortex; conditions: saturation binding, human frontal cortex membranes, 4° C.
T2 construct: membrane enriched fractions from human cortex (ABS Inc., Wilmington, Del.); tissue ABS Inc., Wilmington, Del; host or cells: human cortex (frontal cortex) membrane enriched fractions
T2 sequence (P43681 29-627 limits assumed): as the sequence (P43681 29-627 limits assumed) above
T2 sequence (P17787 26-502): as the sequence (P17787 26-502) above
Description: In addition to the assays previously described for assessing nicotinic acetylcholine receptor positive allosteric modulators (fluoroscence-based measurements, electrophysiology measurements using Xenopus oocytes or cell lines), the receptor interactions of positive allosteric modulators at α4β2 nAChRs also can be evaluated according to the [^3H]-POB binding assay, which was performed as described below.
[^3H]-POB ([^3H]-3-(5-(pyridin-3-yl)-1,2,4-oxadiazol-3-yl)benzonitrile) binding to a α4β2nAChR modulator site was determined using membrane enriched fractions from human cortex (ABS Inc., Wilmington, Del.). […] Non-specific binding was determined in the presence of 30 μM unlabeled 3-(5-(pyridin-3-yl)-1,2,4-oxadiazol-3-yl)benzonitrile. Under these conditions, saturable binding of [^3H]-POB binding was measured in membrane enriched fractions from human frontal cortex (FIG. 10). […]
For use in concentration-inhibition assays, seven log-dilution concentrations of test compounds containing […] of protein, and 50 nM [^3H]-POB (16.4 Ci/mmol) were incubated in a final volume of 500 μL for 75 minutes at 4° C. in duplicate. Non-specific binding was determined in the presence of 30 μM 3-(5-(pyridin-3-yl)-1,2,4-oxadiazol-3-yl)benzonitrile. […] IC50 values were determined by nonlinear regression in Microsoft® Excel or Assay Explorer. […]

[3] = co-applied with the PAM Compound 1, α4β2 nAChRs

calcium response [1, 3]: evoked robust responses
calcium response ([1]; ligand alone, α4β2 nAChRs): does not evoke a calcium response
SMILES: Cc1ncccc1OC[C@@H]1CCCN1 [Compound C, 2-methyl-3-(2-(S)-pyrrolidinylmethoxy)pyridine]

SMILES: c1ccc2ncc(N3C[C@@H]4CN[C@@H]4C3)cc2c1 [Compound D, (1S,5S)-3-(3,6-diaza-bicyclo[3.2.0]hept-3-yl)-quinoline]
Ki (α4β2 nAChR): 6 nM
efficacy in neuropathic pain ([2]; administered alone): ineffective in reversing neuropathic pain
efficacy in neuropathic pain ([2]; combined with the PAM (Compound 1)): significant efficacy can be realized
calcium response [1, 3]: evoked robust responses
calcium response ([1]; ligand alone, α4β2 nAChRs): does not evoke a response

SMILES: Fc1ccc(-c2nc(-c3cncnc3)no2)cc1F [Example 101, 5-(3,4-difluorophenyl)-3-(pyrimidin-5-yl)-1,2,4-oxadiazole tosylate]
Activity (allosteric effects-potentiation of fluorescence responses) [1]: a (“a” denotes as activity range from 200-400%)

Bmax (α4β2nAChR modulator site): 2900±500 fmol/mg protein
SMILES: [3H]c1cncc(-c2nc(-c3cccc(C#N)c3)no2)c1 [[^3H]-POB, [^3H]-3-(5-(pyridin-3-yl)-1,2,4-oxadiazol-3-yl)benzonitrile]
